Source: the Bradley open melting point set (2014)
Several values for one entry are separate records, joined by “and”; a condition that tells them apart may be missing. Identical values can stand only once.

| Compound | melting point |
| --- | --- |
| c1ccc([Si]2(c3ccccc3)O[Si](c3ccccc3)(c3ccccc3)O[Si](c3ccccc3)(c3ccccc3)O[Si](c3ccccc3)(c3ccccc3)O2)cc1 [octaphenylcyclotetrasiloxane] | 201 °C |
| COc1ccc2[nH]c(S(=O)Cc3ncc(C)c(OC)c3C)nc2c1 (stereo not drawn) [omeprazole] | 156 °C |
| O=C(O)c1cc(=O)[nH]c(=O)[nH]1 [orotic acid, anhydrous] | 346 °C |
| O=C(O)c1cc(=O)[nH]c(=O)[nH]1 [orotic acid] [listing 1 of 2 here] | 346 °C |
| O=C(O)c1cc(=O)[nH]c(=O)[nH]1 [orotic acid] [listing 2 of 2 here] | 345 °C |
| CC(C)NCC1CCc2cc(CO)c([N+](=O)[O-])cc2N1 (stereo not drawn) [oxamniquine] | 148 °C |
| CCCOc1ccc2[nH]c(NC(=O)OC)nc2c1 [oxibendazole] | 230 °C |
| Brc1ccc(-c2ccc(Br)cc2)cc1 [p,p'-dibromobiphenyl] | 170 °C |
| ON=Cc1ccc(O)cc1 [p-Hydroxybenzaldehyde oxime] | 112 °C |
| CC(=O)Oc1ccc(C(C)=O)cc1 [p-acetoxy_acetophenone] | 54 °C |
| CC(=O)Oc1ccc(CC#N)cc1 [p-acetoxy_phenylacetonitrile] | 50 °C |
| CC(=O)Oc1ccc(C(N)=O)cc1 [p-acetoxybenzamide] | 179 °C |
| CC(=O)c1ccc(C#N)cc1 [p-acetyl_benzonitrile] | 59 °C |
| C=Cc1ccc(C(C)=O)cc1 [p-acetylstyrene] | 37 °C |
| Nc1ccc(C(=O)O)cc1 [p-aminobenzoic_acid] | 189 °C |
| Nc1ccc(O)cc1 [p-aminophenol] | 189 °C |
| COc1ccc(C=O)cc1 [p-anisaldehyde] | 1 °C |
| COc1ccc(N)cc1 [p-anisidine] [listing 1 of 2 here] | 58 °C |
| COc1ccc(N)cc1 [p-anisidine] [listing 2 of 2 here] | 59 °C |
| N#Cc1ccc(Cc2ccccc2)cc1 [p-benzyl_benzonitrile] | 51 °C |
| O=Cc1ccc(Br)cc1 [p-bromobenzaldehyde] | 57 °C |
| O=C(O)c1ccc(Br)cc1 [p-bromobenzoic acid] | 252 °C |

| Compound | melting point |
| --- | --- |
| O=C(O)c1ccc(Br)cc1 [p-bromobenzoic_acid] | 253 °C |
| CC(C)c1ccc(Cl)cc1 [p-chlorocumene] | -12 °C |
| N#Cc1ccc(CO)cc1 [p-cyano_benzyl_alcohol] | 42 °C |
| CC(C)(C)c1ccc(C(C)(C)C)cc1 [p-di-tert-butylbenzene] | 74 °C |
| Clc1ccc(Cl)cc1 [p-dichlorobenzene] | 53 °C |
| O=Cc1ccc(I)cc1 [p-iodobenzaldehyde] | 78 °C |
| Oc1ccc(I)cc1 [p-iodophenol] | 94 °C |
| CC(=O)c1ccc([N+](=O)[O-])cc1 [p-nitroacetophenone] | 80 °C |
| O=Cc1ccc([N+](=O)[O-])cc1 [p-nitrobenzaldehyde] | 108 °C |
| O=C(O)c1ccc([N+](=O)[O-])cc1 [p-nitrobenzoic_acid] | 241 °C |
| O=[N+]([O-])c1ccc(O)cc1 [p-nitrophenol] | 115 °C |
| O=C(O)c1ccc(-c2ccccc2)cc1 [p-phenylbenzoic_acid] | 227 °C |
| c1ccc(-c2ccc(-c3ccccc3)cc2)cc1 [p-terphenyl] [listing 1 of 2 here] | 213 °C |
| c1ccc(-c2ccc(-c3ccccc3)cc2)cc1 [p-terphenyl] [listing 2 of 2 here] | 214 °C |
| Cc1ccc(C=O)cc1 [p-tolualdehyde] | -6 °C |
| Cc1ccc(S(=O)(=O)O)cc1 [p-toluenesulfonic acid] | 104 °C |
| Cc1ccc(S(=O)(=O)Cl)cc1 [p-toluenesulfonyl chloride] | 69 °C |
| Cc1ccc(S(=O)(=O)CC(=O)O)cc1 [p-toluenesulfonylacetic acid] | 118 °C |
| [C-]#[N+]CS(=O)(=O)c1ccc(C)cc1 [p-toluenesulfonylmethyl isocyanide] [listing 1 of 2 here] | 112 °C |
| [C-]#[N+]CS(=O)(=O)c1ccc(C)cc1 [p-toluenesulfonylmethyl isocyanide] [listing 2 of 2 here] | 112 °C |
| Cc1ccc(C(=O)Cl)cc1 [p-toluoyl chloride] | -2 °C |
| CC(C)(S)[C@@H](N)C(=O)O [penicillamine] | 204 °C |

| Compound | melting point |
| --- | --- |
| ClC(Cl)C(Cl)(Cl)Cl [pentachloroethane] | -29 °C |
| O=[N+]([O-])c1c(Cl)c(Cl)c(Cl)c(Cl)c1Cl [pentachloronitrobenzene] | 144 °C |
| O=C1CCCCCCCCCCCCCCO1 [pentadecanolide] | 35 °C |
| OCC(CO)(CO)CO [pentaerythritol] | 262 °C |
| ClCC(CCl)(CCl)CCl [pentaerythrityl tetrachloride] | 95 °C |
| CCCCC=O [pentanal] | -91 °C |
| CCCCC(=O)O [pentanoic_acid] | -34 °C |
| c1ccc(C2=C(c3ccccc3)C(c3ccccc3)C(c3ccccc3)=C2c2ccccc2)cc1 [pentaphenylcyclopentadiene] | 256 °C |
| C/C(C)=CCN2CC[C@@]1(C)c3cc(O)ccc3C[C@@H]2[C@@H]1C [pentazocin] | 146 °C |
| [O-][I+3]([O-])([O-])O [periodic acid] | 128 °C |
| CCC1(c2ccccc2)C(=O)NC(=O)NC1=O [phenobarbital] [listing 1 of 2 here] | 175 °C |
| CCC1(c2ccccc2)C(=O)NC(=O)NC1=O [phenobarbital] [listing 2 of 2 here] | 174 °C and 176 °C |
| O=C(O)COc1ccccc1 [phenoxyacetic acid] | 100 °C |
| ON=C(c1ccccc1)c1ccccn1 [phenyl 2-pyridyl ketoxime] | 155 °C |
| O=c1[nH]c2ccccc2n1C1CCN(CCCC(c2ccc(F)cc2)c2ccc(F)cc2)CC1 [pimozide] | 216 °C |
| CCC1(C(C)C)C(=O)NC(=O)NC1=O [probarbital] | 203 °C |
| CCCN(CC1CC1)c1c([N+](=O)[O-])cc(C(F)(F)F)cc1[N+](=O)[O-] [profluralin] | 32.5 °C |
| C=C(Br)CC1(C(C)C)C(=O)NC(=O)NC1=O [propallylonal] | 177 °C |
| CCC(=O)OC(=O)CC [propionic anhydride] | -44 °C |
| CCC#N [propionitrile] | -93 °C and -92 °C |
| c1cc(OCC2CO2)cc(OCC2CO2)c1 (stereo not drawn) [resorcinol diglycidyl ether] | 34 °C |

Next, values leading:

| melting point | Compound |
| --- | --- |
| -90 °C | FC(F)(F)C(F)(F)C(F)(F)C(F)(F)C(F)(F)C(F)(F)F [perfluorohexanes] |
| 99 °C | c1ccc2c(c1)ccc1ccccc12 [phenanthracene] |
| 99.2 °C and 101 °C and 99 °C | c1ccc2c(c1)ccc1ccccc12 [phenanthrene] [listing 1 of 2 here] |
| 100 °C | c1ccc2c(c1)ccc1ccccc12 [phenanthrene] [listing 2 of 2 here] |
| 139 °C | Nc1ccc(N=Nc2ccccc2)c(N)n1 [phenazopyridine] |
| 48 °C | CCN(CC)CCSC(=O)N(c1ccccc1)c1ccccc1 [phencarbamide] |
| 101 °C | CCOc1ccc(NC(=O)CN)cc1 [phenocoll] |
| 41 °C | Oc1ccccc1 [phenol] |
| 57 °C | c1ccc2c(c1)Oc1ccccc1S2 [phenoxathiin] |
| -10 °C | O=CCc1ccccc1 [phenylacetaldehyde] |
| 296 °C and 295 °C | O=C1NC(=O)C(c2ccccc2)(c2ccccc2)N1 [phenytoin] |
| 132 °C | O=C1OC(=O)c2ccccc21 [phthalic anhydride] |
| 140 °C | N#Cc1ccccc1C#N [phthalonitrile] |
| 170 °C | CC(C)NCC(O)COc1cccc2[nH]ccc12 (stereo not drawn) [pindolol] |
| 110 °C | C1CNCCN1 [piperazine, anhydrous] |
| 198 °C | CN1C(C(=O)Nc2ccccn2)=C(O)c2ccccc2S1(=O)=O [piroxicam] [listing 1 of 2 here] |
| 200 °C and 199 °C | CN1C(C(=O)Nc2ccccn2)=C(O)c2ccccc2S1(=O)=O [piroxicam] [listing 2 of 2 here] |
| 234 °C (2×) and 237 °C | O=C(CO)[C@@]3(O)CC[C@H]2[C@@H]4CC\C1=C\C(=O)\C=C/[C@]1(C)[C@H]4C(=O)C[C@@]23C [prednisone] |
| 120 °C | OC(CCN1CCCCC1)(c1ccccc1)c1ccccc1 [pridinol] |
| 282 °C | CCC1(c2ccccc2)C(=O)NCNC1=O [primidone] |
| 199 °C | CCCN(CCC)S(=O)(=O)c1ccc(C(=O)O)cc1 [probenecid] |
| 131 °C and 130 °C | O=C4\C=C2/[C@]([C@H]1CC[C@@]3([C@@H](C(=O)C)CC[C@H]3[C@@H]1CC2)C)(C)CC4 [progesterone] |

| melting point | Compound |
| --- | --- |
| -188 °C | CCC [propane] |
| 129 °C | CC(C)NCC(O)COc1cccc2ccccc12 (stereo not drawn) [propranolol] |
| 178 °C | CC(CP(=O)(O)O)P(=O)(O)O (stereo not drawn) [propylenediphosphonic acid] |
| 111 °C | ON=Cc1ccccn1 [pyridine-2-carboxaldoxime] |
| 123 °C | NC(=S)c1ccccn1 [pyridine-2-thiocarboxamide] |
| 132 °C | ON=Cc1ccncc1 [pyridine-4-carboxaldoxime] |
| 21 °C | c1cncnc1 [pyrimidine] |
| 11.5 °C (2×) and 12 °C (2×) and 13.8 °C | CC(=O)C(=O)O [pyruvic acid] |
| 174 °C | C=C[C@H]1C[N@@]2CC[C@H]1C[C@@H]2[C@@H](O)c1ccnc2ccc(OC)cc12 [quinidine] [listing 1 of 2 here] |
| 170 °C | C=C[C@H]1C[N@@]2CC[C@H]1C[C@@H]2[C@@H](O)c1ccnc2ccc(OC)cc12 [quinidine] [listing 2 of 2 here] |
| 176 °C and 174 °C | C=C[C@H]1CN2CC[C@H]1C[C@H]2[C@H](O)c1ccnc2ccc(OC)cc12 [quinine] |
| 146 °C | OB(O)c1cccc2ncccc12 [quinoline-5-boronic acid] |
| 30 °C | c1ccc2nccnc2c1 [quinoxaline] |
| -7 °C | O=Cc1ccccc1O [salicylaldehyde] |
| 57 °C | O/N=C/c1ccccc1O [salicylaldoxime] |
| 142 °C | NC(=O)c1ccccc1O [salicylamide] [listing 1 of 2 here] |
| 140 °C | NC(=O)c1ccccc1O [salicylamide] [listing 2 of 2 here] |
| 157 °C | O=C(O)c1ccccc1O [salicylic acid] |
| 50 °C | Oc1ccccc1C=Nc1ccccc1 [salicylideneaniline] |
| 135 °C | O=C(Oc1ccccc1C(=O)O)c1ccccc1O [salicylsalicylic acid] |
| -75 °C | CCC(C)c1ccccc1 (stereo not drawn) [sec-butylbenzene] |
